We go through one sequence from PMC8954747 (Viruses, 2022).

Ends that are not written are not given here.

For the test, the target named is SCRIB PDZ2 H928A (Homo sapiens, UniProt Q14160, H928A). The experiment in a line: biochemical. It is filed as binding.
Sequence of SCRIB PDZ2 H928A (Q14160 860-950 H928A limits assumed): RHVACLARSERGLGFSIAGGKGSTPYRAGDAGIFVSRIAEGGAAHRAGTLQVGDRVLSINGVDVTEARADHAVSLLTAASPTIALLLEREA

KMARTIESEV [Vietnam (ESEV)] had a Kd of 3.6 ± 0.7 µM.
